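Exposure lasted 48 hours, with cells grown in 96-well plates and compounds tested at five concentrations. GI50: concentration for 50% inhibition of growth. TGI: concentration producing complete growth inhibition.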
Assays:
Assay in all cases: inhibition of tumour cell growth, NCI panel, 48 h
786-0 renal = tested on: 786-0 renal
A549 NSCLC = tested on: A549 NSCLC
ACHN renal = tested on: ACHN renal
CAKI-1 renal = tested on: CAKI-1 renal
CCRF-CEM leukemia = tested on: CCRF-CEM leukemia
DU-145 prostate = tested on: DU-145 prostate
HOP-92 NSCLC = tested on: HOP-92 NSCLC
HT29 colon = tested on: HT29 colon
IGROV1 ovarian = tested on: IGROV1 ovarian
KM12 colon = tested on: KM12 colon
LOX IMVI melanoma = tested on: LOX IMVI melanoma
M14 melanoma = tested on: M14 melanoma
MDA-MB-435 = tested on: MDA-MB-435
NCI-H460 lung = tested on: NCI-H460 lung
OVCAR-5 ovarian = tested on: OVCAR-5 ovarian
RXF 393 renal = tested on: RXF 393 renal
SF-295 CNS = tested on: SF-295 CNS
SF-539 CNS = tested on: SF-539 CNS
SK-MEL-2 melanoma = tested on: SK-MEL-2 melanoma
SK-MEL-28 melanoma = tested on: SK-MEL-28 melanoma
SK-OV-3 ovarian = tested on: SK-OV-3 ovarian
SN12C renal = tested on: SN12C renal
SNB-19 CNS = tested on: SNB-19 CNS
SNB-75 CNS = tested on: SNB-75 CNS
T-47D breast = tested on: T-47D breast
TK-10 renal = tested on: TK-10 renal
UACC-257 melanoma = tested on: UACC-257 melanoma
UACC-62 melanoma = tested on: UACC-62 melanoma
UO-31 renal = tested on: UO-31 renal
A498 renal = tested on: A498 renal
BT-549 breast = tested on: BT-549 breast
COLO 205 colon = tested on: COLO 205 colon
HCC-2998 colon = tested on: HCC-2998 colon
HCT-116 colon = tested on: HCT-116 colon
HCT-15 colon = tested on: HCT-15 colon
HL-60(TB) leukemia = tested on: HL-60(TB) leukemia
HOP-62 NSCLC = tested on: HOP-62 NSCLC
HS 578T breast = tested on: HS 578T breast
K-562 leukemia = tested on: K-562 leukemia
MDA-MB-231 breast = tested on: MDA-MB-231 breast
MOLT-4 leukemia = tested on: MOLT-4 leukemia
NCI-H226 lung = tested on: NCI-H226 lung
NCI-H522 lung = tested on: NCI-H522 lung
NCI/ADR-RES ovarian = tested on: NCI/ADR-RES ovarian
PC-3 prostate = tested on: PC-3 prostate
RPMI-8226 leukemia = tested on: RPMI-8226 leukemia
SF-268 CNS = tested on: SF-268 CNS
SK-MEL-5 melanoma = tested on: SK-MEL-5 melanoma
U251 CNS = tested on: U251 CNS
EKVX NSCLC = tested on: EKVX NSCLC
MCF7 breast = tested on: MCF7 breast
NCI-H23 lung = tested on: NCI-H23 lung
OVCAR-3 ovarian = tested on: OVCAR-3 ovarian
OVCAR-8 ovarian = tested on: OVCAR-8 ovarian

## CCCCn1c(-c2ccc(C(=O)O/N=C(\N)c3ccc(OC)cc3)cc2)nc(-c2ccccc2)c1-c1ccccc1
786-0 renal
  GI50: 0.538 µM
  TGI: 1.91 µM
A549 NSCLC
  GI50: 1.21 µM
  TGI: 3.75 µM
ACHN renal
  GI50: 0.599 µM
  TGI: 1.85 µM
CAKI-1 renal
  GI50: 1.29 µM
  TGI: 2.71 µM
CCRF-CEM leukemia
  GI50: 0.556 µM
  TGI: 2.76 µM
DU-145 prostate
  GI50: 1.27 µM
  TGI: 2.59 µM
HOP-92 NSCLC
  GI50: 0.816 µM
  TGI: 2.41 µM
HT29 colon
  GI50: 2.9 µM
  TGI: > 100 µM
IGROV1 ovarian
  GI50: 0.334 µM
  TGI: 1.16 µM
KM12 colon
  GI50: 2.91 µM
  TGI: > 100 µM
LOX IMVI melanoma
  GI50: 0.181 µM
  TGI: 0.342 µM
M14 melanoma
  GI50: 3.07 µM
  TGI: > 100 µM
MDA-MB-435
  GI50: 1.74 µM
  TGI: 3.28 µM
NCI-H460 lung
  GI50: 1.84 µM
  TGI: 3.87 µM
OVCAR-5 ovarian
  GI50: 2.35 µM
  TGI: > 100 µM
RXF 393 renal
  GI50: 1.64 µM
  TGI: 3.24 µM
SF-295 CNS
  GI50: 1.53 µM
  TGI: 2.97 µM
SF-539 CNS
  GI50: 1.67 µM
  TGI: 3.24 µM
SK-MEL-2 melanoma
  GI50: 2.75 µM
  TGI: 8.36 µM
SK-MEL-28 melanoma
  GI50: 2.75 µM
  TGI: > 100 µM
SK-OV-3 ovarian
  GI50: 3.76 µM
  TGI: > 100 µM
SN12C renal
  GI50: 1.84 µM
  TGI: 4.46 µM
SNB-19 CNS
  GI50: 1.91 µM
  TGI: 5.01 µM
SNB-75 CNS
  GI50: 1.36 µM
  TGI: 3.05 µM
T-47D breast
  GI50: 1.92 µM
  TGI: 4.59 µM
TK-10 renal
  GI50: 1.76 µM
  TGI: 3.38 µM
UACC-257 melanoma
  GI50: 3.61 µM
  TGI: > 100 µM
UACC-62 melanoma
  GI50: 1.88 µM
  TGI: 4.58 µM
UO-31 renal
  GI50: 0.458 µM
  TGI: 1.65 µM

## COc1cc(-c2c(C#N)c(N)n3c(nc4ccccc43)c2C#N)cc(Br)c1OC
786-0 renal
  GI50: 6.24 µM
  TGI: > 100 µM
A498 renal
  GI50: > 100 µM
  TGI: > 100 µM
ACHN renal
  GI50: > 100 µM
  TGI: > 100 µM
BT-549 breast
  GI50: > 100 µM
  TGI: > 100 µM
COLO 205 colon
  GI50: > 100 µM
  TGI: > 100 µM
HCC-2998 colon
  GI50: > 100 µM
  TGI: > 100 µM
HCT-116 colon
  GI50: 4.77 µM
  TGI: > 100 µM
HCT-15 colon
  GI50: > 100 µM
  TGI: > 100 µM
HL-60(TB) leukemia
  GI50: > 100 µM
  TGI: > 100 µM
HOP-62 NSCLC
  GI50: > 100 µM
  TGI: > 100 µM
HS 578T breast
  GI50: 2.71 µM
  TGI: > 100 µM
IGROV1 ovarian
  GI50: 97.5 µM
  TGI: > 100 µM
K-562 leukemia
  GI50: > 100 µM
  TGI: > 100 µM
LOX IMVI melanoma
  GI50: > 100 µM
  TGI: > 100 µM
M14 melanoma
  GI50: > 100 µM
  TGI: > 100 µM
MDA-MB-231 breast
  GI50: 2.46 µM
  TGI: > 100 µM
MDA-MB-435
  GI50: > 100 µM
  TGI: > 100 µM
MOLT-4 leukemia
  GI50: > 100 µM
  TGI: > 100 µM
NCI-H226 lung
  GI50: > 100 µM
  TGI: > 100 µM
NCI-H522 lung
  GI50: 79.7 µM
  TGI: > 100 µM
NCI/ADR-RES ovarian
  GI50: > 100 µM
  TGI: > 100 µM
OVCAR-5 ovarian
  GI50: > 100 µM
  TGI: > 100 µM
PC-3 prostate
  GI50: 4.4 µM
  TGI: > 100 µM
RPMI-8226 leukemia
  GI50: 6.83 µM
  TGI: > 100 µM
RXF 393 renal
  GI50: 4.37 µM
  TGI: > 100 µM
SF-268 CNS
  GI50: 77.5 µM
  TGI: > 100 µM
SF-295 CNS
  GI50: > 100 µM
  TGI: > 100 µM
SF-539 CNS
  GI50: > 100 µM
  TGI: > 100 µM
SK-MEL-2 melanoma
  GI50: 47.5 µM
  TGI: > 100 µM
SK-MEL-28 melanoma
  GI50: > 100 µM
  TGI: > 100 µM
SK-MEL-5 melanoma
  GI50: 3.3 µM
  TGI: > 100 µM
SK-OV-3 ovarian
  GI50: > 100 µM
  TGI: > 100 µM
SNB-19 CNS
  GI50: > 100 µM
  TGI: > 100 µM
SNB-75 CNS
  GI50: 2.18 µM
  TGI: 9.98 µM
U251 CNS
  GI50: 4.47 µM
  TGI: > 100 µM
UACC-257 melanoma
  GI50: > 100 µM
  TGI: > 100 µM
UACC-62 melanoma
  GI50: 28.3 µM
  TGI: > 100 µM
UO-31 renal
  GI50: 4.13 µM
  TGI: > 100 µM

## COc1cc2c3c(n(CCCCl)c(=O)c2cc1OC)-c1ccccc1C3=O
786-0 renal
  GI50: 12.3 µM
  TGI: > 100 µM
A549 NSCLC
  GI50: > 100 µM
  TGI: > 100 µM
ACHN renal
  GI50: 19.2 µM
  TGI: > 100 µM
BT-549 breast
  GI50: > 100 µM
  TGI: > 100 µM
CAKI-1 renal
  GI50: 1.44 µM
  TGI: 7.6 µM
CCRF-CEM leukemia
  GI50: 0.71 µM
  TGI: > 100 µM
DU-145 prostate
  GI50: > 100 µM
  TGI: > 100 µM
EKVX NSCLC
  GI50: > 100 µM
  TGI: > 100 µM
HCC-2998 colon
  GI50: > 100 µM
  TGI: > 100 µM
HCT-116 colon
  GI50: 2.46 µM
  TGI: > 100 µM
HCT-15 colon
  GI50: > 100 µM
  TGI: > 100 µM
HOP-62 NSCLC
  GI50: 4.49 µM
  TGI: 44.5 µM
HOP-92 NSCLC
  GI50: 78.8 µM
  TGI: > 100 µM
HS 578T breast
  GI50: 23.5 µM
  TGI: > 100 µM
K-562 leukemia
  GI50: > 100 µM
  TGI: > 100 µM
KM12 colon
  GI50: > 100 µM
  TGI: > 100 µM
LOX IMVI melanoma
  GI50: 8.83 µM
  TGI: > 100 µM
M14 melanoma
  GI50: 5.96 µM
  TGI: > 100 µM
MCF7 breast
  GI50: 8.9 µM
  TGI: > 100 µM
MDA-MB-231 breast
  GI50: 37 µM
  TGI: > 100 µM
MDA-MB-435
  GI50: > 100 µM
  TGI: > 100 µM
MOLT-4 leukemia
  GI50: 2.18 µM
  TGI: 96.6 µM
NCI-H23 lung
  GI50: 97.3 µM
  TGI: > 100 µM
NCI-H460 lung
  GI50: 3.66 µM
  TGI: > 100 µM
NCI-H522 lung
  GI50: 5.31 µM
  TGI: > 100 µM
NCI/ADR-RES ovarian
  GI50: 6.36 µM
  TGI: > 100 µM
OVCAR-3 ovarian
  GI50: 10.6 µM
  TGI: 54.8 µM
OVCAR-8 ovarian
  GI50: 13.4 µM
  TGI: > 100 µM
PC-3 prostate
  GI50: > 100 µM
  TGI: > 100 µM
RPMI-8226 leukemia
  GI50: 25.4 µM
  TGI: > 100 µM
SF-268 CNS
  GI50: > 100 µM
  TGI: > 100 µM
SF-295 CNS
  GI50: 0.845 µM
  TGI: 13.3 µM
SF-539 CNS
  GI50: 14.1 µM
  TGI: > 100 µM
SK-MEL-2 melanoma
  GI50: > 100 µM
  TGI: > 100 µM
SK-MEL-5 melanoma
  GI50: 21.9 µM
  TGI: > 100 µM
SK-OV-3 ovarian
  GI50: > 100 µM
  TGI: > 100 µM
SN12C renal
  GI50: > 100 µM
  TGI: > 100 µM
SNB-19 CNS
  GI50: > 100 µM
  TGI: > 100 µM
T-47D breast
  GI50: > 100 µM
  TGI: > 100 µM
TK-10 renal
  GI50: 19.6 µM
  TGI: 68.6 µM
U251 CNS
  GI50: 11.9 µM
  TGI: > 100 µM
UACC-257 melanoma
  GI50: 10.2 µM
  TGI: > 100 µM
UACC-62 melanoma
  GI50: 12.4 µM
  TGI: 54.9 µM
UO-31 renal
  GI50: > 100 µM
  TGI: > 100 µM
